# Experimental data from patent US20040044304A1, “Local drug delivery using photosensitizer-mediated and electromagnetic radiation enhanced vascular permeability” (priority 2002, published 2004).
# Where two headings read alike, the source gives them in different places.
# Tests used:
# [1] = tested on: blood vessels within the dorsal window chamber; type: in vivo, Syrian golden hamsters; settings: for Observations 24 hr post FITC-Dextran administration / Observations immediately post FITC-Dextran administration (extravasation): blue 425 nm; for Leakage of FITC-Dextran, dependence on presence of photosensitizer: light doses used in the evaluable animals of Tables 1-4
# Text: Syrian golden hamsters (Charles River Laboratories, Kingston, N.Y.) weighing between 60-70 gram were surgically implanted with titanium back-pack window chambers as described ([…] et al., 1980; Colantuoni et al., 1984; […] et al., 1994). Prior to the surgical procedure, the dorsal surface of the mouse was shaved with electric clippers (Sunbeam Oster 2-Speed, 150 Cadillac Lane, McMinnville, Tenn., 37110) and then the shaved skin covered in a depilatory cream (Nair, Carter Products, New York, N.Y., 10105) for 10 minutes to remove the remaining hair. A dorsal skin fold consisting of two layers of skin and muscle tissue was then sandwiched between two opposing titanium frames (Campus Research Machine Shop, University of California, San Diego 9500 Gilman Drive, La Jolla, Calif.) with a 15 mm circular opening in each. Layers of skin and muscle fascia were separated from the sub-cutaneous tissue, and removed until a thin monolayer of muscle and one layer of intact skin remained. A coverglass (Type Circle 1, Part #12-545-80 sourced from Fisher Scientific, 2761 Walnut Avenue, Tustin, Calif., 92780) held by an expansion ring in the circular window of one titanium frame was then placed on the exposed tissue to allow direct microscopic visualization of the vasculature. The window in the second opposing titanium frame was left open exposing the intact skin. Two days following the implantation of the titanium chamber, an in-dwelling PE10 catheter (VVR Scientific, Westchester, Pa.) was implanted in the carotid artery. The catheter tubing was passed sub-cutaneously from the ventral to the dorsal side of the neck, and exteriorized through the skin at the base of the chamber. The patency of the catheter was ensured by daily flushing of the in-dwelling implanted tip with 0.005-0.01 ml of heparinized saline (40 IU/ml). The heparin was sourced from Upjohn Co., 100 Route […], Prepack, N.J., 07977, and the saline from Abbott Laboratories, North Chicago, Ill., 60064. Microvascular observations using an intra-vital microscope were not undertaken until at least 4 days post-chamber implantation to mitigate against post-surgical trauma, and to confirm that blood vessels within the chamber were functioning and intact and patent. A chamber was considered suitable for subsequent studies if microscopic examination of the preparation met the following criteria (as applied in […] et al., 1994): The intra-vital microscopic studies were undertaken on un-sedated animals held in a Plexiglass tube (Campus Research Machine Shop, University of California, San Diego 9500 Gilman Drive, La Jolla, Calif.) from which the window chamber sandwich protruded horizontally, allowing visualization of the chamber on the microscope stage. The Plexiglass tube acted to restrain the animals without impeding respiration. The intra-vital microscopy was performed using a Leitz Ortholux II (McBain Instruments, Inc., 9601 […] Avenue, Chatsworth, Calif., 91311) fitted with a Leitz Wetzlar 25× saline immersion objective lens, 0.6 numerical aperture (McBain Instruments, Inc., 9601 […] Avenue, Chatsworth, Calif., 91311), a Leitz Wetzlar 10× dry Planfluotar lens, 0.3 numerical aperture (McBain Instruments, Inc., 9601 […] Avenue, Chatsworth, Calif., 91311) and a Leitz Wetzlar 4× EF dry lens, 0.12 numerical aperture (McBain Instruments, Inc., 9601 […] Avenue, Chatsworth, Calif., 91311). A 100 Watt Hg light source (Olympus Corporation, 2 Corporate Center Drive, Melville, N.Y., 11747-3157) was used for both trans- and epi-illumination. For the trans-illumination studies the light was filtered using a 420 nm blue filter which selectively passed light in the region of the maximum absorbance band of hemoglobin, causing the red blood cells to appear as dark objects against a gray background. In addition, a heat filter was placed in the light path prior to the condenser to prevent hyperthermic effects on the tissue being examined.
# [2] = Molar extinction coefficient of the photosensitizer; type: physicochemical; parameters: Molar extinction coefficient: unit not given here; settings: for Peak extinction coefficient: in M-1 cm-1 (unit assumed)
SMILES,"Observations 24 hr post FITC-Dextran administration ([1]; hamster A69, SnET2 1.0 mg/kg i.c., 25 J/cm^2, 44 mW/cm^2)","Observations immediately post FITC-Dextran administration (extravasation) ([1]; hamster A69, SnET2 1.0 mg/kg i.c., 25 J/cm^2, 44 mW/cm^2, FITC-Dextran approx. 45 min post PhotoPoint therapy)","Observations 24 hr post FITC-Dextran administration ([1]; hamster A70, SnET2 1.0 mg/kg i.c., 50 J/cm^2, 44 mW/cm^2)","Observations immediately post FITC-Dextran administration (extravasation) ([1]; hamster A70, SnET2 1.0 mg/kg i.c., 50 J/cm^2, 44 mW/cm^2, FITC-Dextran approx. 60 min post PhotoPoint therapy)","Effect on venules and veins during PhotoPoint therapy ([1]; hamster, in vivo)","Focal constrictions apparent in arterioles and arteries, time following the commencement of PhotoPoint therapy ([1]; hamster, in vivo) [s]","Leakage of FITC-Dextran, dependence on presence of photosensitizer [1]",Peak extinction coefficient ([2]; at 437 nm),Peak extinction coefficient ([2]; at 661 nm),Absorbance at activation wavelength relative to peak spectral absorbance ([2]; green 530 nm-560 nm),Molar extinction coefficient ([2]; green wavelength band 530 nm-560 nm),"Observations immediately post FITC-Dextran administration (extravasation) ([1]; hamster A41, MV6401 0.05 mg/kg i.c., 50 J/cm^2, 80 mW/cm^2, FITC-Dextran approx. 30 min post PhotoPoint therapy)","Observations 24 hr post FITC-Dextran administration ([1]; hamster A46, MV6401 0.15 mg/kg i.c., 50 J/cm^2, 56.6 mW/cm^2)","Observations immediately post FITC-Dextran administration (extravasation) ([1]; hamster A46, MV6401 0.15 mg/kg i.c., 50 J/cm^2, 56.6 mW/cm^2, FITC-Dextran approx. 50 min post PhotoPoint therapy)","Dilation apparent in venules and veins, time following the commencement of PhotoPoint therapy ([1]; hamster, in vivo) [s]","Edema apparent in tissue in chamber, 24 hr post FITC-Dextran administration ([1]; hamster, in vivo, 0.05 mg/kg)","Vascular damage, 24 hr post FITC-Dextran administration ([1]; hamster, in vivo, 0.05 mg/kg)"
"CCOC(=O)C1=Cc2c3nc(cc4nc(cc5[n-]c(cc6[n-]c2c(C)c6CC)c(C)c5CC)C(C)=C4CC)[C@@H](C)[C@]13CC.[Cl-].[Cl-].[Sn] (racemic) [SnET2, tin ethyl etiopurpurin]",Results as for Animal A35.,Results as for Animal A35.,Results as for Animal A35.,Results as for Animal A35.,some minor constriction,≤ 30,only occurred when the photosensitizer (either MV6401 or SnET2) was present,"165,456","52,552",less than 5%,4312,–,–,–,–,–,–
"C=Cc1c(C)c2[n]3c1=CC1=NC(=Cc4c(C)c5c([n]4[In]3[Cl])C(=C3N=C(C=2)[C@@H](C)[C@@H]3CCC(=O)OC)CC5=O)C(CC)=C1C [MV6401, indium methyl pyropheophorbide]",–,–,–,–,–,≤ 30,only occurred when the photosensitizer (either MV6401 or SnET2) was present,–,–,–,–,Results as for Animal A35,Results as for Animal A35.,Results as for Animal A35.,≤ 30,vascular damage. Severe,Gross and microscopic
